The results in this text go back to patent publication US9688671B2, “Metalloenzyme inhibitor compounds” (Viamet Pharmaceuticals, Inc., priority 2013, dated 2017).

One experiment deals with C. albicans. Kind of experiment: Minimum Inhibitory Concentration (MIC), C. albicans growth inhibition (CLSI M27-A2). The experiment is classed as cell-based. The following applies: Candida albicans; about 50% growth reduction; approximately 48 h at 35±1° C.; RPMI+MOPS. The procedure: Compounds were assessed for their ability to inhibit the growth of common strains of fungus, C. albicans using a standardized procedure (CLSI M27-A2). Stock solutions of the test compounds and standards were prepared in DMSO at 1600 μg/mL (C. albicans). Eleven, serial, one-half dilutions of compounds were prepared in 96-well plates in RPMI+MOPS. The assay concentration ranges were 1-0.001 μg/mL (C. albicans). Cell suspensions of C. albicans were prepared and added to each well at concentrations of approximately 3.7×10^3 colony-forming-units per milliliter (cfu/mL). All testing was in duplicate. The inoculated plates were incubated for approximately 48 h at 35±1° C. At the completion of incubation the wells of each plate were evaluated visually for the presence of fungal growth. […] For voriconazole the MIC was the concentration which reduced C. albicans growth by 50% (per CLSI, M27-A2). For QC purposes C. krusei isolate ATCC 6258 (4.0×10^3 cfu/mL) was included in the VOR assay.

Another experiment deals with A. fumigatus. The experiment is described as follows: A. fumigatus MIC (CLSI M38-A2). The conditions noted are these: Aspergillus fumigatus, read-out: Aspergillus MIC (Aspergillus fumigatus MIC50).
The test system of the next experiment is Coccidioides posadasii. Kind of experiment: microbe, parasite or virus in culture. Type of experiment: cell-based. The following applies: 48 h.

Converted amounts (≈) assume the structure as drawn.

As to `N#Cc1ccc(CC(=O)c2ccc(C#Cc3ccc(C(F)(F)C(O)(Cn4cnnn4)c4ccc(F)cc4F)nc3)cc2)cc1` (racemic) [Example 1, 4-(2-(4-((6-(2-(2,4-difluorophenyl)-1,1-difluoro-2-hydroxy-3-(1H-tetrazol-1-yl)propyl)pyridin-3-yl)ethynyl)phenyl)-2-oxoethyl)benzonitrile], the MIC50 in the experiment on C. albicans came out at 0.004 µg/mL (≈ 0.00671 µM); in the experiment on A. fumigatus, 0.5 µg/mL (≈ 0.838 µM).

Regarding `N#Cc1ccc(NCc2ccc(C#Cc3ccc(C(F)(F)C(O)(Cn4cnnn4)c4ccc(F)cc4F)nc3)cc2)cc1` (racemic) [Example 2, 4-(4-((6-(2-(2,4-difluorophenyl)-1,1-difluoro-2-hydroxy-3-(1H-tetrazol-1-yl)propyl)pyridin-3-yl)ethynyl)benzylamino)benzonitrile], the results for the MIC50 against C. albicans and with A. fumigatus were 0.016 µg/mL (≈ 0.0274 µM) and 1 µg/mL (≈ 1.71 µM), respectively.

In the experiment on Coccidioides posadasii, `OC(Cn1cnnn1)(c1ccc(F)cc1F)C(F)(F)c1ccc(C#Cc2ccc(OCc3ccc(C(F)(F)F)s3)cc2)cn1` (racemic) [Example 5, 2-(2,4-difluorophenyl)-1,1-difluoro-3-(1H-tetrazol-1-yl)-1-(5-((4-((5-(trifluoromethyl)thiophen-2-yl)methoxy)phenyl)ethynyl)pyridin-2-yl)propan-2-ol] gave an MIC50 of 0.12 µg/mL (≈ 0.189 µM).

Take `OC(Cn1cnnn1)(c1ccc(F)cc1F)C(F)(F)c1ccc(C#Cc2ccc(OCc3ccc(F)s3)cc2)cn1` (racemic) [Example 6, 2-(2,4-difluorophenyl)-1,1-difluoro-1-(5-((4-((5-fluorothiophen-2-yl)methoxy)phenyl)ethynyl)pyridin-2-yl)-3-(1H-tetrazol-1-yl)propan-2-ol]: the MIC50 with C. albicans was determined as 0.008 µg/mL (≈ 0.0137 µM); in the experiment with A. fumigatus it was 0.5 µg/mL (≈ 0.857 µM).

Consider `OC(Cn1cnnn1)(c1ccc(F)cc1F)C(F)(F)c1ccc(C#Cc2ccc(CNc3ccc(Cl)cc3)cc2)cn1` (racemic) [Example 7, 1-(5-((4-((4-chlorophenylamino)methyl)phenyl)ethynyl)pyridin-2-yl)-2-(2,4-difluorophenyl)-1,1-difluoro-3-(1H-tetrazol-1-yl)propan-2-ol], for which the MIC50 against Coccidioides posadasii amounted to 0.12 µg/mL (≈ 0.202 µM).

For the compound `OC(Cn1cnnn1)(c1ccc(F)cc1F)C(F)(F)c1ccc(C#Cc2ccc(CNc3ccc(F)cc3)cc2)cn1` (racemic) [Example 8, 2-(2,4-difluorophenyl)-1,1-difluoro-1-(5-((4-((4-fluorophenylamino)methyl)phenyl)ethynyl)pyridin-2-yl)-3-(1H-tetrazol-1-yl)propan-2-ol], the MIC50 stood at 0.004 µg/mL (≈ 0.00694 µM) with C. albicans and 0.5 µg/mL (≈ 0.867 µM) with A. fumigatus.

As for `CN(C)Cc1ccc(COc2ccc(C#Cc3ccc(C(F)(F)C(O)(Cn4cnnn4)c4ccc(F)cc4F)nc3)cc2)cc1` (racemic) [Example 11, 2-(2,4-difluorophenyl)-1-(5-((4-(4-((dimethylamino)methyl)benzyloxy)phenyl)ethynyl)pyridin-2-yl)-1,1-difluoro-3-(1H-tetrazol-1-yl)propan-2-ol], the MIC50 in the experiment on C. albicans came to 0.016 µg/mL (≈ 0.0259 µM); in the experiment with A. fumigatus, 0.5 µg/mL (≈ 0.811 µM).

Turning to `OC(Cn1cnnn1)(c1ccc(F)cc1F)C(F)(F)c1ccc(C#Cc2ccc(OCc3ccc(Cn4cccn4)cc3)cc2)cn1` (racemic) [Example 13], the values for the MIC50 against C. albicans and with A. fumigatus were 0.016 µg/mL (≈ 0.025 µM) and 0.25 µg/mL (≈ 0.391 µM), respectively.

Turning to `C[C@@H](c1ncncc1F)[C@](O)(Cn1cncn1)c1ccc(F)cc1F` [Voriconazole, voriconazole, reference compound], the MIC50 came out at 0.016 µg/mL (≈ 0.0458 µM) against C. albicans and 0.25 µg/mL (≈ 0.716 µM) in the experiment on A. fumigatus.
